Consider one substance from patent US20090304688A1, “Methods and Compositions for Increasing the Efficiency of Therapeutic Antibodies Using Gamma Delta T Cell Activators” (INNATE PHARMA S.A., priority 2006, published 2009).

This test deals with γδ T lymphocytes. The test is described as follows: In vivo amplification of γδ T lymphocytes in primates.

For “3-(bromomethyl)-3-butanol-1-yl-diphosphate [BrHPP]”, under “BrHPP 90 mg/kg i.v. with IL-2 in rituximab-treated animals”, the “amplification of γδ T lymphocytes in vivo” value was “efficiently and repeatedly amplified”. For the same substance, under “BrHPP in rituximab-treated animals compared with BrHPP alone”, the “level and kinetics of γδ T lymphocyte response” value is “at least as good as what is generally observed with BrHPP alone”.
